pIC50, pKi: −log10 of the molar value. Several values for one entry are separate records, joined by “and”; a condition that tells them apart may be missing. Identical values can stand only once.
Legend:
[1] = biological target: T1, Amine oxidase [flavin-containing] A (Homo sapiens, UniProt P21397); assay: Inhibition of MAO-A (unknown origin)
T1 sequence (P21397 whole entry): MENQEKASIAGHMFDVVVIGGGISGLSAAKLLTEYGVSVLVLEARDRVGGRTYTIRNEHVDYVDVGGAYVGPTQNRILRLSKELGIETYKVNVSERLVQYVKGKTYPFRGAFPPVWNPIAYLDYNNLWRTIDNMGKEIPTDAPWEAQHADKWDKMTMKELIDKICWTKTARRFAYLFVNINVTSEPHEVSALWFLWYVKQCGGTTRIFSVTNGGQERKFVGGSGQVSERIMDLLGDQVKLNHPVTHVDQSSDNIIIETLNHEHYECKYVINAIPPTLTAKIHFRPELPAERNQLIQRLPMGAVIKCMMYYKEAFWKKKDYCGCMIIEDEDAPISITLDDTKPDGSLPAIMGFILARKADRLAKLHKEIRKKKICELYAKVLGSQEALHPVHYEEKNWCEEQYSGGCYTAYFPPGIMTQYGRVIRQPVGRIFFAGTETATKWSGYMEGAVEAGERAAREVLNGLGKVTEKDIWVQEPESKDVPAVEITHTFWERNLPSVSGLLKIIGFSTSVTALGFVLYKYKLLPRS

[2] = biological target: 5-hydroxytryptamine receptor 2B (Homo sapiens, UniProt P41595); assay: Binding affinity to 5-HT2B (unknown origin) assessed as equilibrium binding constant
[3] = biological target: 5-hydroxytryptamine receptor 2B (Rattus norvegicus, UniProt P30994); assay: Displacement of [3H]-ketanserin from rat 5-HT2B expressed in mouse NIH/3T3 cells assessed as inhibition constant by Cheng-Prusoff equation analysis; type: cell-based
[4] = biological target: T2, Acetylcholinesterase (Homo sapiens, UniProt P22303); assay: Inhibition of AChE (unknown origin) incubated for 40 mins by Ellman's method
[5] = biological target: GABA-A receptor; anion channel; assay: Inhibition of GABAA receptor (unknown origin); type: protein-complex assay, Homo sapiens
[6] = biological target: T2, Acetylcholinesterase; assay: Inhibition of AChE (unknown origin)
[7] = biological target: Cholinesterase (Homo sapiens, UniProt P06276); assay: Inhibition of BuChE (unknown origin)
[8] = biological target: T2, Acetylcholinesterase; assay: Inhibition of AChE (unknown origin) using acetylthiocholine iodide as substrate incubated for 20 mins followed by substrate addition by Ellman's method
[9] = biological target: T3, Gamma-aminobutyric acid receptor subunit alpha-3 (Homo sapiens, UniProt P34903); assay: Binding affinity to human recombinant GABAA alpha3 receptor assessed as inhibition constant incubated for 1 hrs by liquid scintillation counting analysis
T3 sequence (P34903 whole entry): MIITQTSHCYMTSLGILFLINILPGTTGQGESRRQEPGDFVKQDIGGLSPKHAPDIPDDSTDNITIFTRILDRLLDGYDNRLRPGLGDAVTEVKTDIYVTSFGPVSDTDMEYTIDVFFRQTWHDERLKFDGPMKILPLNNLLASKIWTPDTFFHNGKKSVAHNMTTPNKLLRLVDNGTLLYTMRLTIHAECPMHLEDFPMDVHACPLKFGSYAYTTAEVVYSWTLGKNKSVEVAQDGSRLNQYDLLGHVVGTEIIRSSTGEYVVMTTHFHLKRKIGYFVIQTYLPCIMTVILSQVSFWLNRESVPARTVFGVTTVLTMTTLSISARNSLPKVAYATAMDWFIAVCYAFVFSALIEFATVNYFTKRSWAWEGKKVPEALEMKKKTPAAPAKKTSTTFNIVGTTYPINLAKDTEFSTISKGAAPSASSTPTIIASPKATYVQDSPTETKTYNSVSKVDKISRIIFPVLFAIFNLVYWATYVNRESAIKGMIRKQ

[10] = biological target: T4, Gamma-aminobutyric acid receptor subunit alpha-2 (Homo sapiens, UniProt P47869); assay: Binding affinity to human recombinant GABAA alpha2 receptor assessed as inhibition constant incubated for 1 hrs by liquid scintillation counting analysis
T4 sequence (P47869 whole entry): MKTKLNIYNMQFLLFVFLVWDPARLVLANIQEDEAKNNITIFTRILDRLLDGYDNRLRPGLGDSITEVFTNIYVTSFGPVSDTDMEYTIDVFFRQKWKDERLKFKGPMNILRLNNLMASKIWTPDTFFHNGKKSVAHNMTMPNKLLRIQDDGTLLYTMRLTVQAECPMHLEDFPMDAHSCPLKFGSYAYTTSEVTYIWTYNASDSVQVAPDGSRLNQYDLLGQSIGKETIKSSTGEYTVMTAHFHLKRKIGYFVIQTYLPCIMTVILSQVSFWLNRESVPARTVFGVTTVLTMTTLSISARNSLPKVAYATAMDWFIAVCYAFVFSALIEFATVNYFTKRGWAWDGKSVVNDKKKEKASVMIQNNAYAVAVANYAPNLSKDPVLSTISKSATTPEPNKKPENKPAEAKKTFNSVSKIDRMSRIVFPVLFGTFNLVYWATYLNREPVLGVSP

[11] = biological target: T5, Gamma-aminobutyric acid receptor subunit alpha-1 (Homo sapiens, UniProt P14867); assay: Binding affinity to human recombinant GABAA alpha1 receptor assessed as inhibition constant incubated for 1 hrs by liquid scintillation counting analysis
T5 sequence (P14867 whole entry): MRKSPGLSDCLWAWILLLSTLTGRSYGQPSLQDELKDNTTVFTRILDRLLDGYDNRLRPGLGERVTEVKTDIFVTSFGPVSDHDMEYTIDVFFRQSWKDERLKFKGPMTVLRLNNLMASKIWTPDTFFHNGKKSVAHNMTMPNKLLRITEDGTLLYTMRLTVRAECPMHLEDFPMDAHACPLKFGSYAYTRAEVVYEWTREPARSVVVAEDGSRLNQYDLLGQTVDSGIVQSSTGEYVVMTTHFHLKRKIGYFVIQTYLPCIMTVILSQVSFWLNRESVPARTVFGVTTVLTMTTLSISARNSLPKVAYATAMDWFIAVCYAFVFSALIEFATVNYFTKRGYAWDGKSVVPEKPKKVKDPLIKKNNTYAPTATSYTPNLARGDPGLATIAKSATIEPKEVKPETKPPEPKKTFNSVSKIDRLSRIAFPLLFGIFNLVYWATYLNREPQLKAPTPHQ

[12] = biological target: Gamma-aminobutyric acid receptor subunit alpha-6 (Homo sapiens, UniProt Q16445); assay: Binding affinity to human recombinant GABAA alpha6 receptor assessed as inhibition constant incubated for 1 hrs by liquid scintillation counting analysis
[13] = biological target: T6, Gamma-aminobutyric acid receptor subunit alpha-5 (Homo sapiens, UniProt P31644); assay: Binding affinity to human recombinant GABAA alpha5 receptor assessed as inhibition constant incubated for 1 hrs by liquid scintillation counting analysis
T6 sequence (P31644 whole entry): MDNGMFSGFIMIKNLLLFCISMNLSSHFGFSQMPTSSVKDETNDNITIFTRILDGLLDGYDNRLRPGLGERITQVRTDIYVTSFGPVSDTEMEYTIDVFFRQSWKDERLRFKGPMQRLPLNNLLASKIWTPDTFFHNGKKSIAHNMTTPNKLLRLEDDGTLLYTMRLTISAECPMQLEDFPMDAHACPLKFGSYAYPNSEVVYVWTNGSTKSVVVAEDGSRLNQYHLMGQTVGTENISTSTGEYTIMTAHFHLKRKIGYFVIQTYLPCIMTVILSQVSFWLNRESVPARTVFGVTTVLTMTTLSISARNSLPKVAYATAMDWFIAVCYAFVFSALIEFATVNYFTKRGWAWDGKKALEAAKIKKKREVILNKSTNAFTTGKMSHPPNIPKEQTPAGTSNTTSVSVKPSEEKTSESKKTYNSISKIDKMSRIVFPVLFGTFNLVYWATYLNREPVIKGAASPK

[14] = biological target: GABA-A receptor; anion channel; assay: Displacement of [3H]flunitrazepam from GABAA (unknown origin ) receptor by radioligand binding assay; type: protein-complex assay, Homo sapiens

Chain of 5-hydroxytryptamine receptor 2B (Rattus norvegicus, UniProt P30994) (P30994 whole entry): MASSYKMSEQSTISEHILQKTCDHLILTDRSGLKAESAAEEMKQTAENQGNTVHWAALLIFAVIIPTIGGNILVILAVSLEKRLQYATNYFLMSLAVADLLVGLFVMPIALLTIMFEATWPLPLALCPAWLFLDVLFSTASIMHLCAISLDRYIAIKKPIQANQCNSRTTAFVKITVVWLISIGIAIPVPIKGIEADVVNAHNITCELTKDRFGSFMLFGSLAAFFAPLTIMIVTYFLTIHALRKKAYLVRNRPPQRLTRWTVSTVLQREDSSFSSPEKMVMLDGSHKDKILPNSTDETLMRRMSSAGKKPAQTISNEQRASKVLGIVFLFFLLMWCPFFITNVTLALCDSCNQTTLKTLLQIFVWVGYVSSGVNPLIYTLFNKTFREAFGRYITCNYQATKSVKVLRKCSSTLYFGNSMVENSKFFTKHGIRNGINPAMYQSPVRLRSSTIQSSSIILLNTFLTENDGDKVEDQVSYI
Chain of 5-hydroxytryptamine receptor 2B (Homo sapiens, UniProt P41595) (P41595 whole entry): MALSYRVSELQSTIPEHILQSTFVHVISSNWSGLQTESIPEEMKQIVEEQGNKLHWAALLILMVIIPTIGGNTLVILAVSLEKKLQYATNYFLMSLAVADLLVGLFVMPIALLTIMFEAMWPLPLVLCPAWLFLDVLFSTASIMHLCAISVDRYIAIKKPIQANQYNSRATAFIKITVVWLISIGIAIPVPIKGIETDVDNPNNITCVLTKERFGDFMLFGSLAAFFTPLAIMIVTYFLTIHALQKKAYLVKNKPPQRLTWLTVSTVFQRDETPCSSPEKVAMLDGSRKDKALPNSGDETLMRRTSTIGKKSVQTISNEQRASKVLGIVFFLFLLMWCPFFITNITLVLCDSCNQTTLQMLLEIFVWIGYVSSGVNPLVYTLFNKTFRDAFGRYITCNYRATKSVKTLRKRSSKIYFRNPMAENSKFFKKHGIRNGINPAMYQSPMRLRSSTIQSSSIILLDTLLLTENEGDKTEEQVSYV
T2 sequence (P22303 whole entry): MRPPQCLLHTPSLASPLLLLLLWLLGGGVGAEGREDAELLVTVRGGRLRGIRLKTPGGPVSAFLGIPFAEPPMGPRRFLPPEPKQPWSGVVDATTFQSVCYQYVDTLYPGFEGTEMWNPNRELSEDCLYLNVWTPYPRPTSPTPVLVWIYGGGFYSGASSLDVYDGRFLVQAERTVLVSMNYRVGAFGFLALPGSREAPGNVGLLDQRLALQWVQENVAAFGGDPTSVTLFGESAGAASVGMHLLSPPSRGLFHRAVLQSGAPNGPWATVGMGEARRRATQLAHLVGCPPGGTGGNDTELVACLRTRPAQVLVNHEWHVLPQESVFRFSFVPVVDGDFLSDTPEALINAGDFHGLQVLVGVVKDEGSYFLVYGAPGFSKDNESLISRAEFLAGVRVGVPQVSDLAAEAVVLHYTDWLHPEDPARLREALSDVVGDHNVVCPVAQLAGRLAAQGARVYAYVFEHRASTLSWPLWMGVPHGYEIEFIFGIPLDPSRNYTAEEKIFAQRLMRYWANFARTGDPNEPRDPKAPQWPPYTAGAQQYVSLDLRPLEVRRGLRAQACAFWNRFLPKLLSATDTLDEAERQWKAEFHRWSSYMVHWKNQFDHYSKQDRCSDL
Chain of Gamma-aminobutyric acid receptor subunit alpha-6 (Q16445 whole entry): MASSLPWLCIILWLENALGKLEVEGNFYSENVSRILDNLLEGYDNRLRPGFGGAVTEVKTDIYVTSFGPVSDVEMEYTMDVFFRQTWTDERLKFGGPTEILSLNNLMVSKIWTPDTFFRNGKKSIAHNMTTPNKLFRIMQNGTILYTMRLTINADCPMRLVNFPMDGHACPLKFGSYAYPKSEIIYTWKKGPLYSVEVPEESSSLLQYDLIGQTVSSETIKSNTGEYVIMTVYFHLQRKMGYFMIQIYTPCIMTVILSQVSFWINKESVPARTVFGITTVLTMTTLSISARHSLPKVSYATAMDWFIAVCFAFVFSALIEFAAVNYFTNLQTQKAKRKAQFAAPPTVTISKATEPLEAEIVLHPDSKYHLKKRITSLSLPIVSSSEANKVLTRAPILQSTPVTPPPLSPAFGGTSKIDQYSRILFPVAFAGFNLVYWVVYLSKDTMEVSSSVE
Chain of Cholinesterase (P06276 whole entry): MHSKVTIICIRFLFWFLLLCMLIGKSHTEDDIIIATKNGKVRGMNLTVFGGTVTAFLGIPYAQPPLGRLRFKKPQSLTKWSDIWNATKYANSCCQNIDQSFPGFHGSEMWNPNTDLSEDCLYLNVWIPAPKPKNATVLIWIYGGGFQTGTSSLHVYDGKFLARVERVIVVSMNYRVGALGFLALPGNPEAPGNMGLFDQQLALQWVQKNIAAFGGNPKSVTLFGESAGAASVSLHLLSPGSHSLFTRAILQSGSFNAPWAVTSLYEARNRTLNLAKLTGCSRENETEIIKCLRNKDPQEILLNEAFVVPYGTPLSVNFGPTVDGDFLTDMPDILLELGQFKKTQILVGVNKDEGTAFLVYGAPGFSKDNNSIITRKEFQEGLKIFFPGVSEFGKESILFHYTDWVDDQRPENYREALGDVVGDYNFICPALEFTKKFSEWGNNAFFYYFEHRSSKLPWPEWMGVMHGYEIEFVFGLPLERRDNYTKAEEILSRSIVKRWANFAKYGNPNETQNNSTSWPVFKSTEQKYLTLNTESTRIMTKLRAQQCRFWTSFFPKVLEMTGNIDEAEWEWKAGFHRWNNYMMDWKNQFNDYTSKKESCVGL

CCCn1c2cc(OCc3cn(Cc4ccccc4Cl)nn3)ccc2c2ccnc(C)c21
pIC50 [1]: 6.59

COc1ccc(CC2NCCc3c2[nH]c2ccc(C)cc32)c(Br)c1OC (configuration not stated)
Kb [2]: < 0.3 nM
pKi [3]: 9.70

c1ccc2c(CC3NCCc4c3[nH]c3ccccc43)cccc2c1 (configuration not stated)
Kb [2]: 0.4 nM
pKi [3]: 9.40

CCc1cccc2[nH]c3c(c12)CCNC3Cc1ccc(OC)c(OC)c1 (configuration not stated)
Kb [2]: < 0.3 nM
pKi [3]: 10.00

Cc1nccc2c1[nH]c1cc(OCC(C)C)ccc12
pIC50 [1]: 8.30

Cn1c2c(c3ccccc31)CC[N+](c1ccc(Br)cc1Br)=C2
pIC50 [4]: < 5.00

c1ccc(COc2ccc3c(c2)[nH]c2c3ncc3[nH]c4ccccc4c32)cc1
pIC50 [5]: < 5.40

Cc1nccc2c1[nH]c1cc(CO)ccc12
pIC50 [1]: 7.40

COc1ccc(-[n+]2ccc3c4ccccc4n(C)c3c2)cc1
pIC50 [6]: 6.52
pIC50 [7]: 4.49 and 3.94

O=C(NCCCCCCNc1c2c(nc3ccccc13)CCCC2)[C@@H]1Cc2c([nH]c3ccccc23)CN1
pIC50 [6]: 7.66
INH [7]: 22 nM

COc1ccc(CC2NCCc3c2[nH]c2c(F)cc(F)cc32)cc1OC (configuration not stated)
Kb [2]: < 0.3 nM
pKi [3]: 9.70

COCc1c(C(=O)OC(C)C)ncc2[nH]c3ccc4nccnc4c3c12
pIC50 [5]: 9.10

COCc1c(-c2cc(C)on2)ncc2[nH]c3ccc4oc(C(C)C)nc4c3c12
pIC50 [5]: 9.05

COc1ccc2c3ccnc(C)c3n(C)c2c1
pIC50 [1]: 7.96

COCc1c(C(=O)OC(C)C)ncc2[nH]c3ccc4nc5c(nc4c3c12)CCCC5
pIC50 [5]: 9.10

C=CCOc1ccc2c(c1)[nH]c1c(C)nccc12
pIC50 [1]: 8.30

COCc1ccc2c(c1)[nH]c1c(C)nccc12
pIC50 [1]: 7.52

Cc1nccc2c1[nH]c1cc(OCCc3ccccc3)ccc12
pIC50 [1]: 8.30

Cn1c2c(c3ccccc31)CC[N+](c1ccc(Br)cc1)=C2
pIC50 [4]: 5.82

COc1ccc(CC2NCCc3c2[nH]c2cccc(I)c32)cc1OC (configuration not stated)
Kb [2]: < 0.3 nM
pKi [3]: 10.00

COCc1c(C(=O)OC(C)C)ncc2[nH]c3ccc4oc(C(C)C)cc4c3c12
pIC50 [5]: 9.10

C=C[C@H]1[C@@H](/C(=C/O)C(=O)OC)C[C@H]2c3[nH]c4ccccc4c3CCN2[C@H]1O[C@@H]1O[C@H](CO)[C@@H](O)[C@H](O)[C@H]1O
pIC50 [8]: 5.72

Cc1ccc([N+]2=Cc3c(c4ccccc4n3C)CC2)cc1
pIC50 [4]: 5.82

O=c1c2cc(NS(=O)(=O)c3ccccc3OC(F)(F)F)ccc2cc2n1CCc1c-2[nH]c2ccccc12
pIC50 [7]: 5.44

COc1ccc2c(c1)[nH]c1c2ncc2[nH]c3ccccc3c21
pKi [9]: 7.96
pKi [10]: 7.92
pKi [11]: 8.52
pKi [12]: < 5.00
pKi [13]: 6.64
pIC50 [5]: 8.40

COc1ccc(CC2NCCc3c2[nH]c2cccc(C)c32)cc1OC (configuration not stated)
Kb [2]: 0.08 nM
pKi [3]: 10.00

Cn1c2c(c3ccccc31)CC[N+](c1ccc(I)cc1)=C2
pIC50 [4]: 5.82

Cn1c2ccccc2c2cc[n+](-c3ccc(I)cc3)cc21
pIC50 [4]: 6.62
pIC50 [6]: 6.62 and 6.52
pIC50 [7]: 4.49 and 3.94

Cn1c2ccccc2c2cc[n+](-c3ccc(Cl)cc3)cc21
pIC50 [6]: 6.25 and 6.52
pIC50 [7]: 4.49 and 3.94

COC(=O)C1=CO[C@@H](C)[C@H]2C[n+]3ccc4c([nH]c5ccccc54)c3C[C@H]12
pIC50 [8]: 6.11

Cc1nccc2c1[nH]c1cc(OCCCC(F)(F)F)ccc12
pIC50 [1]: 8.30

COc1ccc(CC2NCCc3c2[nH]c2c(C)cc(C)cc32)cc1OC (configuration not stated)
Kb [2]: < 0.3 nM and 0.08 nM
pKi [3]: 9.70

COc1ccc2c(c1)[nH]c1c(C(C)=O)nccc12 [ARENARINE C]
pIC50 [6]: 5.40
pIC50 [7]: 4.57

COc1ccc(CC2NCCc3c2[nH]c2cccc(SC)c32)cc1OC (configuration not stated)
Kb [2]: < 0.3 nM
pKi [3]: 10.00

C=C[C@H]1C[N+]2=C(C[C@@H]1/C(=C\OC)C(=O)OC)c1[nH]c3cccc(OC)c3c1CC2
pIC50 [8]: 5.39

Clc1ccc2c(c1)[nH]c1c2ncc2[nH]c3ccccc3c21
pKi [9]: 7.62
pKi [10]: 7.92
pKi [11]: 8.40
pKi [12]: < 5.00
pKi [13]: 6.68
pIC50 [5]: 8.40

Brc1ccc2[nH]c3cnc4c5ccccc5[nH]c4c3c2c1
pIC50 [5]: 8.40

O=[N+]([O-])c1ccc2[nH]c3cnc4c5ccccc5[nH]c4c3c2c1
pIC50 [5]: 8.40

Cn1c2ccccc2c2cc[n+](-c3ccc(Br)cc3)cc21
pIC50 [4]: 6.62
pIC50 [7]: 4.49 and 3.94

CCOC(=O)c1ncc2[nH]c3ccc(OCc4ccccc4)cc3c2c1COC
pKi [9]: 8.22
pKi [10]: 8.40
pKi [11]: 8.40
pKi [12]: < 6.00
pKi [13]: 8.30
pIC50 [14]: 9.30

COc1ccc(CC2NCCc3c2[nH]c2ccc(C)cc32)c(Cl)c1OC (configuration not stated)
Kb [2]: < 0.3 nM
pKi [3]: 9.70

Reference: ChEMBL document CHEMBL5233266, “β-Carboline as a Privileged Scaffold for Multitarget Strategies in Alzheimer's Disease Therapy” (J Med Chem, 2021)
